Laboratory results reported in PMC5727346 (International Journal for Parasitology: Drugs and Drug …, 2017).

Target: triosephosphate isomerase from G. lamblia (GlTIM; dGlTIM) (Giardia duodenalis, UniProt P36186, C202A)
Assay: GDH-coupled TIM activity assay after […] h incubation at […] °C
Format: biochemical

SMILES: CCN(CC)C(=S)SSC(=S)N(CC)CC [disulfiram, 1,1′,1″,1‴-[disulfanediylbis(carbonothioylnitrilo)]tetraethane]
- IC50: 6.6 µM
